Assay results published in paper PMC5957549 (Nature, 2017).

Assays:
Adrenergic α2A = Adrenergic α2A (Homo sapiens, UniProt P08913); test: Radioligand displacement; assay type: binding; conditions: read-out: Inhib. (%)
suite of 31 CNS targets = test: Binding across a suite of 31 CNS targets; conditions: 10 μM
Glutamate – NMDA = test: Radioligand displacement; assay type: binding; conditions: 10 μM fenethylline, average of two replicates
AdenosineA2A = AdenosineA2A (Homo sapiens, UniProt P29274); test: Radioligand displacement; assay type: binding; conditions: read-out: Inhib. (%)
Muscarinic M3 = Muscarinic M3 (Homo sapiens, UniProt P20309); test: Radioligand displacement; assay type: binding; conditions: read-out: Inhib. (%)
Dopamine D2S = Dopamine D2S (Homo sapiens, UniProt P14416); test: Radioligand displacement; assay type: binding; conditions: read-out: Inhib. (%)
Swiss Webster mice [1] = test: Open field hyperlocomotor activity assay; assay type: in vivo
Adrenergic β2 = Adrenergic β2 (Homo sapiens, UniProt P07550); test: Radioligand displacement; assay type: binding; conditions: read-out: Inhib. (%)
Sigma σ1 = Sigma σ1 (Homo sapiens, UniProt Q99720); test: Radioligand displacement; assay type: binding; conditions: read-out: Inhib. (%)
GABAA – Site 2 = test: Radioligand displacement; assay type: binding; conditions: 10 μM fenethylline, average of two replicates
Adenosine A1 = Adenosine A1 (Homo sapiens, UniProt P30542); test: Radioligand displacement; assay type: binding; conditions: read-out: Inhib. (%)
Swiss Webster mice [2] = test: Elevated plus maze; assay type: in vivo; conditions: EPM; fenethylline 20 mg/kg
Swiss Webster mice [3] = test: Conditioned place preference; assay type: in vivo; conditions: training with fenethylline 20 mg/kg
Phorbol Ester = test: Radioligand displacement; assay type: binding; conditions: 10 μM fenethylline, average of two replicates
Adrenergic α1A = test: Radioligand displacement; assay type: binding; conditions: 10 μM fenethylline, average of two replicates
Adrenergic α1B = test: Radioligand displacement; assay type: binding; conditions: 10 μM fenethylline, average of two replicates
Muscarinic M2 = Muscarinic M2 (Homo sapiens, UniProt P08172); test: Radioligand displacement; assay type: binding; conditions: read-out: Inhib. (%)
Norepi. Transporter = Norepi. Transporter (Homo sapiens, UniProt P23975); test: Radioligand displacement; assay type: binding; conditions: read-out: Inhib. (%)
[4] = assay type: in vivo, Swiss Webster mice; conditions: fenethylline 50 mg/kg vs amphetamine 5 mg/kg
GABAA – Site 1 = test: Radioligand displacement; assay type: binding; conditions: 10 μM fenethylline, average of two replicates
Nicotinic Ach α1 = Nicotinic Ach α1 (Homo sapiens, UniProt P02708+P07510+Q07001); test: Radioligand displacement; assay type: binding; conditions: read-out: Inhib. (%)
Adrenergic β1 = Adrenergic β1 (Homo sapiens, UniProt P08588); test: Radioligand displacement; assay type: binding; conditions: read-out: Inhib. (%)
Nicotinic Ach = test: Radioligand displacement; assay type: binding; conditions: 10 μM fenethylline, average of two replicates
L-Type Ca Channel = test: Radioligand displacement; assay type: binding; conditions: 10 μM fenethylline, average of two replicates
Rolipram = test: Radioligand displacement; assay type: binding; conditions: 10 μM fenethylline, average of two replicates
Prostanoid EP4 = Prostanoid EP4 (Homo sapiens, UniProt P35408); test: Radioligand displacement; assay type: binding; conditions: read-out: Inhib. (%)
Cannabinoid CB1 = Cannabinoid CB1 (Homo sapiens, UniProt P21554); test: Radioligand displacement; assay type: binding; conditions: read-out: Inhib. (%)
Chain of Cannabinoid CB1 (P21554 whole entry): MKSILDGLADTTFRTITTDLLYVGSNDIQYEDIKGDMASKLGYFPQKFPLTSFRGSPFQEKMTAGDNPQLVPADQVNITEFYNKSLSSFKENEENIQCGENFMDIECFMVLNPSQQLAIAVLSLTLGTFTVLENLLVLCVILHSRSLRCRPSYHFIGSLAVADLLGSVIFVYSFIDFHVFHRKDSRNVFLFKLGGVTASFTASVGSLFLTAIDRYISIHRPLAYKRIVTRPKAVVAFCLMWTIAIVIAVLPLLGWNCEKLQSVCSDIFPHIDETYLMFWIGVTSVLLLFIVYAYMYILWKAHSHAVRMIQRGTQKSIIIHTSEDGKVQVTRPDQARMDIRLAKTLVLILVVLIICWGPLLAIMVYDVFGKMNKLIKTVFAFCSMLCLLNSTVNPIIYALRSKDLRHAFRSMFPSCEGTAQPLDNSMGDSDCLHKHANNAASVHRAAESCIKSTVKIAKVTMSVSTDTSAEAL

Chain of Adrenergic α2A (P08913 whole entry): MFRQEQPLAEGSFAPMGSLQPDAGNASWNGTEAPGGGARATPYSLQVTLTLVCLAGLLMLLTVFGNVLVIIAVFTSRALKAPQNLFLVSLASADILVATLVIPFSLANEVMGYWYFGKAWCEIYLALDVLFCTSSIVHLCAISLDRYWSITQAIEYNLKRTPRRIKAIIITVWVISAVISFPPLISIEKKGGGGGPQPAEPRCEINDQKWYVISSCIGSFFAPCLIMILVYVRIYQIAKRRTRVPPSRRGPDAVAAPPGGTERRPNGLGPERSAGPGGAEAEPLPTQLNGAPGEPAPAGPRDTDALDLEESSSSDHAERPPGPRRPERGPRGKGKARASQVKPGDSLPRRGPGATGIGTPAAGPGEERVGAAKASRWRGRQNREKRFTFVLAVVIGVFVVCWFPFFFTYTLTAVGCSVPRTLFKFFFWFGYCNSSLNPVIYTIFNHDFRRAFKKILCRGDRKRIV
Chain of Norepi. Transporter (P23975 whole entry): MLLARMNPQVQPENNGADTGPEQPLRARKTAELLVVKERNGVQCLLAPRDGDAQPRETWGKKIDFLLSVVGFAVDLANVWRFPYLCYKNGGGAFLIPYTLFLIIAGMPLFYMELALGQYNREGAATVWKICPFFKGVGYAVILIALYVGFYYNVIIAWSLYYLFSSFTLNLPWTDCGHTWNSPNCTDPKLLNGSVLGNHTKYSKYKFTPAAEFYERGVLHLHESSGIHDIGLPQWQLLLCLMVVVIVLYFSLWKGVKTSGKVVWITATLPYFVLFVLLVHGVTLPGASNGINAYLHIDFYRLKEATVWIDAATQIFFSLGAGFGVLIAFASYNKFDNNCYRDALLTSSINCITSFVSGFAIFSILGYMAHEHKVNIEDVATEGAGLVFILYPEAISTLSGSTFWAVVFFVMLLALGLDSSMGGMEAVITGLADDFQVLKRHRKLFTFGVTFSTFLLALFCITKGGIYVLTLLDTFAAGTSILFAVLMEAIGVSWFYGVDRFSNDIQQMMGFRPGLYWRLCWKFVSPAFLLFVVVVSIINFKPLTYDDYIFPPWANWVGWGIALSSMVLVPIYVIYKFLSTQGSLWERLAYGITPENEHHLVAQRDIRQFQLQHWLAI
Chain of Prostanoid EP4 (P35408 whole entry): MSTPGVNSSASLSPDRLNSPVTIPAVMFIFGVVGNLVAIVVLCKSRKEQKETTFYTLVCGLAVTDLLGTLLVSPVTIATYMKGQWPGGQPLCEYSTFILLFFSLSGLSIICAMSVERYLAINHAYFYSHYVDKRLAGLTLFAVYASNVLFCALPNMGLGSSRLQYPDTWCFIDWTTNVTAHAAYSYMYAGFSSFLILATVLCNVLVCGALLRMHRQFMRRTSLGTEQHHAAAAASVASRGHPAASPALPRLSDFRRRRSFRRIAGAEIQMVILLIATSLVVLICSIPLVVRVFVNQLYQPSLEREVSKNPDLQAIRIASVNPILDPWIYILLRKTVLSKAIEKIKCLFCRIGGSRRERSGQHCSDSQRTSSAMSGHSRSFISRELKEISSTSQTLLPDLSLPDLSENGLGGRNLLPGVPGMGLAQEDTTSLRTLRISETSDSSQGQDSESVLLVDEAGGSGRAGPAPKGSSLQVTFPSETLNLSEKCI
Chain of Adrenergic β2 (P07550 whole entry): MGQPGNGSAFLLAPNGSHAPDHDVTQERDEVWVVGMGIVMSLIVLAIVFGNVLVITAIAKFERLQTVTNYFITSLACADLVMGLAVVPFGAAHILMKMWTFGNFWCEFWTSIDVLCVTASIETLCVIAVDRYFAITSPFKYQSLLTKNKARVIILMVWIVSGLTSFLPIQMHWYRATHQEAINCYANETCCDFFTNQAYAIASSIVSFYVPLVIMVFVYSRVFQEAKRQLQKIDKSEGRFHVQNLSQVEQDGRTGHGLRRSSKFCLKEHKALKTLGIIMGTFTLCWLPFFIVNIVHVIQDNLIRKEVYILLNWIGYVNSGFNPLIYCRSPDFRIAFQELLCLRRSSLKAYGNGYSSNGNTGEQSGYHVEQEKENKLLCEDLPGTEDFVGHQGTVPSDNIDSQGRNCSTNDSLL
Chain of Muscarinic M2 (P08172 whole entry): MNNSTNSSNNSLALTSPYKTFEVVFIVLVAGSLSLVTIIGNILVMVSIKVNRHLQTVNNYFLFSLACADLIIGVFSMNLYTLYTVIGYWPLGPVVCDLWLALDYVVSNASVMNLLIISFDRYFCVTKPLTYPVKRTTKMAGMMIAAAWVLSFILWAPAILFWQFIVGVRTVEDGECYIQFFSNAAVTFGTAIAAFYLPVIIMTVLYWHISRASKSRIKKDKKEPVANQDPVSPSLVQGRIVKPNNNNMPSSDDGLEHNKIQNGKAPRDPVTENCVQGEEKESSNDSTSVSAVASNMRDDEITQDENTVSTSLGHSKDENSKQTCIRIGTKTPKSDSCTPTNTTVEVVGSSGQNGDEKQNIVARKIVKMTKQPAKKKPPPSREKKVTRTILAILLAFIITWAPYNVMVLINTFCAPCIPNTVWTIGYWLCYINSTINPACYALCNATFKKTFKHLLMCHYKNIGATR
Chain of Adenosine A1 (P30542 whole entry): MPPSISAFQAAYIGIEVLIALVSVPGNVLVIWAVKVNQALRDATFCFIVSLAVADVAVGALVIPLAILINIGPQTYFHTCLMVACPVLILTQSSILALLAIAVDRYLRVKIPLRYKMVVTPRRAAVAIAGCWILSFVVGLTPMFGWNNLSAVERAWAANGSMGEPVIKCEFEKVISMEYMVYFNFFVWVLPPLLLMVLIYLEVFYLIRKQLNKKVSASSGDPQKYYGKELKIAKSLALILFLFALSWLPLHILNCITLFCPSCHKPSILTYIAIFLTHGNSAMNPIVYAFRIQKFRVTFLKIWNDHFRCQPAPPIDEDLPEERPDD
Chain of Adrenergic β1 (P08588 whole entry): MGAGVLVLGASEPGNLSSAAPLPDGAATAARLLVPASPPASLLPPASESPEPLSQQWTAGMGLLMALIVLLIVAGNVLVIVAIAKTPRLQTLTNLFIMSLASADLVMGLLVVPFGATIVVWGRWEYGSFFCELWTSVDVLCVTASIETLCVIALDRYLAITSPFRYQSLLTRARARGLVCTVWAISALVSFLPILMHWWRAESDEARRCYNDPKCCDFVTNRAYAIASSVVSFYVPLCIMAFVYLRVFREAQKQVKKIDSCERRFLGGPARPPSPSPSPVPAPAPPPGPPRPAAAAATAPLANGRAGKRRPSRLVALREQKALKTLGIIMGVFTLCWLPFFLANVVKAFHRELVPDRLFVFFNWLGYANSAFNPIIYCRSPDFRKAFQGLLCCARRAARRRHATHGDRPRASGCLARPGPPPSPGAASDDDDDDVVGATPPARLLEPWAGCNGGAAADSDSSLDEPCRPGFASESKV
Chain of Sigma σ1 (Q99720 whole entry): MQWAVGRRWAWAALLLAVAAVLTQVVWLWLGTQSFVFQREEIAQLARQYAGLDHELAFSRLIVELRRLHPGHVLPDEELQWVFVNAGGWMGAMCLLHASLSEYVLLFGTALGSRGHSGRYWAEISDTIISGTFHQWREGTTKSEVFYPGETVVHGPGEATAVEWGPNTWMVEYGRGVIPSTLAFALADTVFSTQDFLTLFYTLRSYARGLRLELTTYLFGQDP
Chain of AdenosineA2A (P29274 whole entry): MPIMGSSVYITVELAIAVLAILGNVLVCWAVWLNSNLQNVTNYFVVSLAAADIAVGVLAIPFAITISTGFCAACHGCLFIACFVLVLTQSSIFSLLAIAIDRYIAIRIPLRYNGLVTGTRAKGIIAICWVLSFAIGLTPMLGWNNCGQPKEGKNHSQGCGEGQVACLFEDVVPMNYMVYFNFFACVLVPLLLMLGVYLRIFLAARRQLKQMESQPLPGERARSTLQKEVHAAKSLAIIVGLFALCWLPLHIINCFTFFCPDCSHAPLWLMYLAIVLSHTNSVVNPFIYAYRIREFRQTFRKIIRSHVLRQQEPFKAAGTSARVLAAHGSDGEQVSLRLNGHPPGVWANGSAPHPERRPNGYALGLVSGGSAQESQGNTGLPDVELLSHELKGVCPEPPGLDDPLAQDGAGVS
Chain of Dopamine D2S (P14416 1-414 isoform P14416-2): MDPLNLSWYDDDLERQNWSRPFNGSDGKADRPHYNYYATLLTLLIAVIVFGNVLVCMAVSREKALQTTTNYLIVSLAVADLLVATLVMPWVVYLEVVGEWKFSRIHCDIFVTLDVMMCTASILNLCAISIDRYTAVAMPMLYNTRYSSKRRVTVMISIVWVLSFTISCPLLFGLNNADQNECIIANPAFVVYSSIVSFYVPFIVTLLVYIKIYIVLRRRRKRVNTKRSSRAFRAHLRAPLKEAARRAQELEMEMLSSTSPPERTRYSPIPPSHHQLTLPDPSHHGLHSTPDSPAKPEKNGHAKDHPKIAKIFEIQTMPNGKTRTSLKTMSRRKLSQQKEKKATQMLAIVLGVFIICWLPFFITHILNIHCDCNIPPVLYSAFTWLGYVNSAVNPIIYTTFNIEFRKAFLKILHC

Q: What does the source list for CC(Cc1ccccc1)NCCn1cnc2c1c(=O)n(C)c(=O)n2C (stereo not shown) [fenethylline, Fenethylline]?
A: inhibition at 10 µM (Adrenergic α2A): 16%; binding across a suite of 31 CNS targets (suite of 31 CNS targets): little binding; Inhib. (%) (Glutamate – NMDA): 10%; inhibition at 10 µM (AdenosineA2A): -5%; inhibition at 10 µM (Muscarinic M3): 2%; inhibition at 10 µM (Dopamine D2S): 1%; onset of stimulant (hyperlocomotor) activity (Swiss Webster mice [1]; fenethylline 20 mg/kg vs amphetamine 2 mg/kg): more rapid than that of amphetamine alone; locomotor activity after drug in control animals (Swiss Webster mice [1]; open field, control (KLH) animals): clear dose-dependent increase; inhibition at 10 µM (Adrenergic β2): 3%; inhibition at 10 µM (Sigma σ1): 7%; Inhib. (%) (GABAA – Site 2): 5%; inhibition at 10 µM (Adenosine A1): 0%; time spent in open arms after drug in control animals (Swiss Webster mice [2]): reduced the time; induction of conditioned place preference (Swiss Webster mice [3]): induce CPP; Inhib. (%) (Phorbol Ester): 9%; Inhib. (%) (Adrenergic α1A): 27%; Inhib. (%) (Adrenergic α1B): 16%; inhibition at 10 µM (Muscarinic M2): -6%; inhibition at 10 µM (Norepi. Transporter): 10%; penetration of liberated amphetamine into brain tissue [4]: lags behind that of directly administered amphetamine; Inhib. (%) (GABAA – Site 1): 0%; inhibition at 10 µM (Nicotinic Ach α1): 9%; inhibition at 10 µM (Adrenergic β1): 9%; Inhib. (%) (Nicotinic Ach): 2%; Inhib. (%) (L-Type Ca Channel): 6%; Inhib. (%) (Rolipram): 9%; inhibition at 10 µM (Prostanoid EP4): 3%; inhibition at 10 µM (Cannabinoid CB1): 16%
